Results on eight compounds are retold here after PubChem BioAssay (NCI).

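Following 48 hours of exposure in 96-well plates, responses at five concentrations were used to interpolate endpoints linearly. TGI is the concentration that stops growth completely.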

Some test systems named below: 786-0 renal; CCRF-CEM leukemia; HCC-2998 colon; HCT-15 colon; HL-60(TB) leukemia; HT29 colon; LOX IMVI melanoma; MDA-MB-435; NCI-H522 lung; OVCAR-3 ovarian; OVCAR-5 ovarian; SK-MEL-28 melanoma; SN12C renal; SNB-75 CNS; SR leukemia; SW-620 colon; U251 CNS; UACC-62 melanoma; NCI-H226 lung; SK-MEL-2 melanoma.
What all share (experiment): NCI tumour cell line growth inhibition, 48 h

In the case of `CC(=O)Oc1cc(C)c(OC(C)=O)c2c1[C@H]1CC[C@]3(C)[C@@H](OC(C)=O)CC[C@H]3[C@@H]1CC2`, the TGI with 786-0 renal worked out at 43.1 µM; in the assay with CCRF-CEM leukemia it was 43.5 µM; in the assay on HCC-2998 colon, 26.9 µM; with HCT-15 colon, 31.3 µM; with HL-60(TB) leukemia it was 56.7 µM; in the assay with HT29 colon, 46.2 µM. The TGI in the assay with LOX IMVI melanoma worked out at 29.3 µM; in the assay with MDA-MB-435, 27.7 µM; in the assay with NCI-H522 lung it was 32.6 µM; in the assay with OVCAR-3 ovarian, 32.1 µM; with OVCAR-5 ovarian, 36 µM; with SK-MEL-28 melanoma, 29.9 µM. The TGI in the assay on SN12C renal was 33.2 µM; in the assay with SNB-75 CNS, 52.1 µM; in the assay on SR leukemia, > 100 µM; in the assay with SW-620 colon, 34.3 µM; in the assay with U251 CNS, 29.4 µM; with UACC-62 melanoma it was 32.8 µM.

`Cc1cc(=O)oc2c3c(ccc12)OC(c1ccc(Br)cc1)CC3=O` (configuration not stated): the TGI in the assay with 786-0 renal worked out at 25.5 µM; in the assay with CCRF-CEM leukemia it was 9.11 µM; in the assay with HCC-2998 colon it was 59.2 µM; in the assay with HCT-15 colon, 34.2 µM; with HT29 colon, 32 µM; with LOX IMVI melanoma, 14.6 µM. Also, the TGI with MDA-MB-435 was found to be 16.9 µM; in the assay on NCI-H226 lung, 38.2 µM; with NCI-H522 lung, 18 µM; with OVCAR-3 ovarian it was 24.3 µM; in the assay with OVCAR-5 ovarian, 31.4 µM; with SK-MEL-2 melanoma, 33.5 µM. Also, the TGI in the assay on SK-MEL-28 melanoma is 21.3 µM; in the assay with SN12C renal, > 100 µM; with SNB-75 CNS it was 18.6 µM; in the assay with SR leukemia it was > 100 µM; in the assay with SW-620 colon it was 23.9 µM; in the assay with U251 CNS it was 18.3 µM. This compound also returned a TGI in the assay with UACC-62 melanoma of 23.7 µM.

Turning to `CCCCCCCCCCCCCCCC(=O)OC(COC(C)=O)CO[P+](=O)O` (configuration not stated), the TGI in the assay on 786-0 renal was 38.9 µM; in the assay on CCRF-CEM leukemia it was > 100 µM; in the assay with HCC-2998 colon it was 42.7 µM; with HCT-15 colon it was 43.8 µM; in the assay with HL-60(TB) leukemia, > 100 µM; in the assay on LOX IMVI melanoma it was 63.9 µM. For the same compound, the TGI in the assay on MDA-MB-435 was > 100 µM; with NCI-H522 lung, 36.2 µM; with OVCAR-3 ovarian it was > 100 µM; with OVCAR-5 ovarian it was 38.6 µM; with SK-MEL-2 melanoma, 40.6 µM; in the assay on SK-MEL-28 melanoma, > 100 µM. Besides, the TGI was > 100 µM in the assay with SN12C renal; 94 µM in the assay with SNB-75 CNS; 62 µM in the assay on SR leukemia; > 100 µM in the assay with SW-620 colon; 45.3 µM in the assay with U251 CNS; > 100 µM in the assay with UACC-62 melanoma.

For the compound `COc1ccc(N=Nc2ccc3oc(=O)c(C(=O)Nc4ccc(Cl)cc4)cc3c2)cc1`, the TGI in the assay on 786-0 renal, in the assay with HCC-2998 colon, in the assay with HCT-15 colon, in the assay with HT29 colon, in the assay with LOX IMVI melanoma and in the assay with MDA-MB-435 was > 10 µM throughout. In addition, the TGI in the assay with NCI-H226 lung, with NCI-H522 lung, in the assay on OVCAR-3 ovarian, in the assay on OVCAR-5 ovarian, in the assay on SK-MEL-2 melanoma and with SK-MEL-28 melanoma was > 10 µM throughout. Further, the TGI with SN12C renal, in the assay with SNB-75 CNS, in the assay with SR leukemia, with SW-620 colon and with U251 CNS was > 10 µM throughout.

For the compound `CCN(CC)c1ccc2cc(C(=O)Nc3nc(C45CC6CC(CC(C6)C4)C5)cs3)c(=O)oc2c1`, the TGI in the assay on 786-0 renal, in the assay on CCRF-CEM leukemia, in the assay on HCC-2998 colon, in the assay on HCT-15 colon, in the assay with HL-60(TB) leukemia and in the assay on HT29 colon was > 100 µM throughout. The TGI in the assay with LOX IMVI melanoma, with MDA-MB-435, in the assay on NCI-H226 lung, with NCI-H522 lung, in the assay on OVCAR-3 ovarian and with OVCAR-5 ovarian was > 100 µM each time. Moreover, the TGI in the assay with SK-MEL-28 melanoma, with SN12C renal, in the assay on SR leukemia, with SW-620 colon and in the assay with U251 CNS was > 100 µM in each case.

As for `O=C(O)c1cc(O)c2c(c1)C([C@@H]1c3cccc(O)c3C(=O)c3c(O)cc(C(=O)O)cc31)c1cccc(O)c1C2=O` (some centres not stated), the TGI in the assay on 786-0 renal is > 100 µM; with CCRF-CEM leukemia, > 100 µM; with HCC-2998 colon, > 100 µM; in the assay on HL-60(TB) leukemia it was 85.5 µM; with HT29 colon it was > 100 µM; in the assay with LOX IMVI melanoma it was 31.9 µM. The TGI in the assay with MDA-MB-435 is 49 µM; with NCI-H226 lung, > 100 µM; in the assay with NCI-H522 lung, 44.6 µM; in the assay with OVCAR-3 ovarian it was > 100 µM; in the assay with OVCAR-5 ovarian, > 100 µM; in the assay with SK-MEL-28 melanoma, > 100 µM. In addition, the TGI in the assay on SN12C renal was > 100 µM; in the assay on SNB-75 CNS, 62.6 µM; in the assay with SR leukemia it was > 100 µM; with SW-620 colon, > 100 µM; with U251 CNS, 67.8 µM; with UACC-62 melanoma, 78.6 µM.

Turning to `CNC(=O)CNC(=O)C(Cc1ccc(NC(=O)CCCCC(C)=O)cc1)NC(=O)C(CCC(=O)OCc1ccccc1)NC(=O)OC(C)(C)C` (configuration not stated), the TGI in the assay on 786-0 renal, with HCC-2998 colon, in the assay with HCT-15 colon, with HL-60(TB) leukemia, with HT29 colon and with LOX IMVI melanoma was > 100 µM each time. Further, the TGI in the assay on MDA-MB-435, in the assay with NCI-H226 lung, with NCI-H522 lung, with OVCAR-3 ovarian, in the assay with OVCAR-5 ovarian and with SK-MEL-28 melanoma was > 100 µM each time. Also, the TGI in the assay with SN12C renal, in the assay on SNB-75 CNS, in the assay on SR leukemia, in the assay with SW-620 colon, in the assay with U251 CNS and in the assay on UACC-62 melanoma was > 100 µM each time.

With `COc1ccc2c(c1)CCC1=C/C(=N\NC(N)=O)CCC12C` (configuration not stated), the TGI in the assay on 786-0 renal, in the assay on CCRF-CEM leukemia, in the assay on HCC-2998 colon, with HCT-15 colon, with HL-60(TB) leukemia and in the assay with HT29 colon was > 10 µM each time. For the same compound, the TGI in the assay on LOX IMVI melanoma, with MDA-MB-435, in the assay on NCI-H522 lung, in the assay with OVCAR-3 ovarian, with SK-MEL-28 melanoma and with SN12C renal was > 10 µM in each case. The TGI in the assay on SNB-75 CNS, with SR leukemia, with SW-620 colon, in the assay with U251 CNS and in the assay on UACC-62 melanoma was > 10 µM in each case.
